# Test: Water solubility: appearance and pH of the aqueous mix while acid and polyamine are combined
# Format: physicochemical
# Details: TEPA 2.0 g in water 94.0 g, before LAS acid
# Description: As PAAS began forming, the solution became hazy. Upon further addition of the LAS acid, the hazy solution became a dispersion. Upon standing for hours, the dispersion formed a layer of sediment at the bottom of the beaker. Even a very diluted formulation (such as below 0.1%) was hazy. […] The solution was clear at the all time over the entire pH range, leading to the conclusion that Na-LAS was fully ionized or disassociated. […] Example 1 was repeated, except that fatty acid was used in place of LAS acid.
smiles,measurement,value
"NCCNCCNCCNCCN [TEPA, Tetraethylenepentamine]",Observations (appearance),Clear

# From patent US20050197274A1, “Solid laundry detergent granules with polyanionic ammonium surfactant and non-aqueous binder” (Unilever Home & Personal Care USA, Division of Conopco, Inc., priority 2004, published 2005)
